Results published in ChEMBL document CHEMBL1201862, “PubChem BioAssay data set” (2004).
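96-well plates; 48 h exposure; 5 concentrations. Endpoints by linear interpolation between flanking doses. Not reached: highest tested concentration assigned. The concentration for 50% growth inhibition is given as GI50.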 The source made the active and inactive calls. Rule as the data show it: active = GI50 up to about 1.1 µM and inactive = higher.

Columns and labels:
Experiment in all cases: growth of human tumour cells (NCI), 48 h
PC-3 = test system: PC-3
HOP-92 = test system: HOP-92
M14 = test system: M14
A549 = test system: A549
COLO 205 = test system: COLO 205
MDA-N = test system: MDA-N
MCF7 = test system: MCF7
OVCAR-4 = test system: OVCAR-4
OVCAR-3 = test system: OVCAR-3
SNB-19 = test system: SNB-19
RXF 393 = test system: RXF 393
IGROV-1 = test system: IGROV-1
SK-MEL-5 = test system: SK-MEL-5
HL-60 = test system: HL-60
KM12 = test system: KM12
Hs-578T = test system: Hs-578T
MOLT-4 = test system: MOLT-4
HCT-15 = test system: HCT-15
T47D = test system: T47D
HT-29 = test system: HT-29

Compound	GI50 (PC-3)	GI50 (HOP-92)	GI50 (M14)	GI50 (A549)	GI50 (COLO 205)	GI50 (MDA-N)	GI50 (MCF7)	GI50 (OVCAR-4)	GI50 (OVCAR-3)	GI50 (SNB-19)	GI50 (RXF 393)	GI50 (IGROV-1)	GI50 (SK-MEL-5)	GI50 (HL-60)	GI50 (KM12)	GI50 (Hs-578T)	GI50 (MOLT-4)	GI50 (HCT-15) [µM]	GI50 (T47D)	GI50 (HT-29)
NCC1OC(n2cnc3c(=O)[nH]c(N)nc32)C(O)C1O (stereo not given)	> 100 µM (inactive)	> 100 µM (inactive)	> 100 µM (inactive)	> 100 µM (inactive)	> 100 µM (inactive)	> 100 µM (inactive)	95.5 µM (inactive)	> 100 µM (inactive)	> 53.3 µM (inactive)	> 100 µM (inactive)	> 100 µM (inactive)	> 100 µM (inactive)	> 100 µM (inactive)	> 100 µM (inactive)	> 100 µM (inactive)	> 100 µM (inactive)	> 100 µM (inactive)	> 100	97.1 µM (inactive)	> 100 µM (inactive)
NC(=O)C1CCCNC1 (stereo not given)	> 100 µM (inactive)	> 100 µM (inactive)	> 100 µM (inactive)	> 100 µM (inactive)	> 100 µM (inactive)	> 100 µM (inactive)	> 100 µM (inactive)	> 100 µM (inactive)	> 100 µM (inactive)	> 100 µM (inactive)	> 100 µM (inactive)	> 100 µM (inactive)	> 100 µM (inactive)	> 100 µM (inactive)	> 100 µM (inactive)	> 100 µM (inactive)	24.3 µM (inactive)	> 100	> 100 µM (inactive)	> 100 µM (inactive)
COC(=O)CCC(C)[C@H]1CCC2C3C(C[C@H](OC(C)=O)[C@@]21C)[C@@]1(C)CCC2(C[C@H]1C[C@H]3OC(C)=O)OOC1(CCCCC1)OO2 (stereo not given in full)	5.97 µM (inactive)	1.02 µM (active)	15.5 µM (inactive)	11.3 µM (inactive)	24.7 µM (inactive)	33.9 µM (inactive)	22.3 µM (inactive)	15.8 µM (inactive)	40.5 µM (inactive)	42.2 µM (inactive)	38.7 µM (inactive)	5.2 µM (inactive)	19.4 µM (inactive)	7.26 µM (inactive)	23.6 µM (inactive)	12 µM (inactive)	17.2 µM (inactive)	21.8	65.9 µM (inactive)	41.9 µM (inactive)
COC(=O)CC1C2(C)C3=C(C)C(c4ccoc4)CC3OC2C2OC(=O)C3(C)C=CC(=O)C1(C)C23 (stereo not given)	1.18 µM (inactive)	1.82 µM (inactive)	1.32 µM (inactive)	2.83 µM (inactive)	1.3 µM (inactive)	0.385 µM (active)	0.578 µM (active)	2.25 µM (inactive)	1.35 µM (inactive)	2.25 µM (inactive)	1.3 µM (inactive)	0.953 µM (active)	1.6 µM (inactive)	0.372 µM (active)	1.71 µM (inactive)	3.5 µM (inactive)	0.455 µM (active)	0.67	1.38 µM (inactive)	0.839 µM (active)
COc1cc(C(c2cccc3ccccc23)N2C(=O)CCC2C(=O)O)cc(OC)c1OC (stereo not given)	> 100 µM (inactive)	> 100 µM (inactive)	> 100 µM (inactive)	> 100 µM (inactive)	> 100 µM (inactive)	> 100 µM (inactive)	> 100 µM (inactive)	> 100 µM (inactive)	> 100 µM (inactive)	> 100 µM (inactive)	> 100 µM (inactive)	> 100 µM (inactive)	> 100 µM (inactive)	> 100 µM (inactive)	> 100 µM (inactive)	> 100 µM (inactive)	> 100 µM (inactive)	> 100	> 100 µM (inactive)	> 100 µM (inactive)
O=C(C/N=C(\CN(c1ccccc1)c1ccccc1)Oc1c(Cl)cc(Cl)cc1Cl)N1c2ccccc2Sc2ccccc21	34 µM (inactive)	21.9 µM (inactive)	30.5 µM (inactive)	54.5 µM (inactive)	34.8 µM (inactive)	51.1 µM (inactive)	32.3 µM (inactive)	88.7 µM (inactive)	46.8 µM (inactive)	> 100 µM (inactive)	0.101 µM (active)	28.2 µM (inactive)	21.4 µM (inactive)	47.4 µM (inactive)	38.1 µM (inactive)	50.9 µM (inactive)	30.6 µM (inactive)	32.9	31.9 µM (inactive)	43.3 µM (inactive)
CSc1c(CC(=O)O)n(Cc2ccccc2)c2ccccc12	> 100 µM (inactive)	> 100 µM (inactive)	> 100 µM (inactive)	35.8 µM (inactive)	> 100 µM (inactive)	> 100 µM (inactive)	> 100 µM (inactive)	61.7 µM (inactive)	> 100 µM (inactive)	> 100 µM (inactive)	> 100 µM (inactive)	> 100 µM (inactive)	> 100 µM (inactive)	> 100 µM (inactive)	> 100 µM (inactive)	> 100 µM (inactive)	> 100 µM (inactive)	74.5	91.6 µM (inactive)	> 100 µM (inactive)
